Where a name gives a salt, the structure may show the parent alone. Read-outs that look alike come from different tables or passages of the source.
Columns and labels:
[1] = target: T1, peripheral opioid receptors (Mus musculus, UniProt P42866); assay: precipitated diarrhea in morphine-maintained mice (peripheral opioid activity) and comparison with the writhing test; assay type: in vivo; settings: for Ratio (AD50 mouse writhing test / ED50 mouse diarrhea test): higher ratio = greater relative antagonism of peripheral opioid receptors; for ED50: mouse, 0.5 h, morphine-maintained mice, antagonist subcutaneous or oral, 30 min observation
T1 construct: Mice maintained (6 mice/cage) on 0.01M saccharin water with 1 g/1 morphine sulfate; from tissue; host or cells: living morphine-maintained mice (in vivo test; endogenous receptor)
T1 sequence (P42866 whole entry): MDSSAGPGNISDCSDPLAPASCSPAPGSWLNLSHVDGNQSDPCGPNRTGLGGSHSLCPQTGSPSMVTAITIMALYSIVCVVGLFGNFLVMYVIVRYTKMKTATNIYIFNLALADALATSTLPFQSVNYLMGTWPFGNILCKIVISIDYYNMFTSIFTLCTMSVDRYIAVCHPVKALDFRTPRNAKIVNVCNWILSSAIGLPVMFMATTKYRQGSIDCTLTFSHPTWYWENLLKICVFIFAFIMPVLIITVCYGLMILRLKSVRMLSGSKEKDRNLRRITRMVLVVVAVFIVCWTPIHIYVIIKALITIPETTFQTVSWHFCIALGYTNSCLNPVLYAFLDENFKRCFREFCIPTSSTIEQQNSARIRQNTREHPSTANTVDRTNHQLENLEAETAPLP
Outline: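 Morphine-dependent mice (1 g/l morphine sulfate in drinking water ≥10 days, withdrawn 45 min before dosing) received antagonist subcutaneously or orally, 5 mice/dose. Diarrhea (and jumping) were scored over 30 min and doses lowered to find the diarrhea threshold. Peripheral selectivity was taken as writhing AD50 divided by diarrhea ED50.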

opioid receptor = target: T2, opioid receptor (Mus musculus, UniProt P42866); assay: mouse writhing analgesis test: block of morphine-induced analgesia; assay type: in vivo, CF-1 male mice; set-up: unit not given here; settings: dose of antagonist that reduced the inhibition of writhing produced by 1.25 mg/kg morphine sulfate to 50%; subcutaneous, 20 min before acetic acid
T2 construct: Five CF-1 male mice (Charles River, Portage, Mich.); from tissue; host or cells: living CF-1 male mice (in vivo test; endogenous receptor)
T2 sequence (P42866 whole entry): as above
Outline: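 Male CF-1 mice (~20 g, fasted overnight, n=5) dosed subcutaneously 20 min before i.p. 0.6% acetic acid; writhes counted for 10 min starting 5 min post-injection. Antagonism measured as blockade of morphine-induced inhibition of writhing, percent versus vehicle controls; ED50 defined as 50% writhing inhibition.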

mu receptor = target: T3, mu receptor (Rattus norvegicus, UniProt P33535); assay: opioid receptor binding assay, [3H] NAL (tritiated naloxone), mu receptor; set-up: species or system rat (Male Sprague Dawley), brain minus cerebellum
T3 construct: rat whole brain minus cerebellum for mu was homogenized; from tissue; host or cells: brain of male Sprague Dawley rats, whole brain minus cerebellum, homogenate fraction
T3 sequence (P33535 whole entry): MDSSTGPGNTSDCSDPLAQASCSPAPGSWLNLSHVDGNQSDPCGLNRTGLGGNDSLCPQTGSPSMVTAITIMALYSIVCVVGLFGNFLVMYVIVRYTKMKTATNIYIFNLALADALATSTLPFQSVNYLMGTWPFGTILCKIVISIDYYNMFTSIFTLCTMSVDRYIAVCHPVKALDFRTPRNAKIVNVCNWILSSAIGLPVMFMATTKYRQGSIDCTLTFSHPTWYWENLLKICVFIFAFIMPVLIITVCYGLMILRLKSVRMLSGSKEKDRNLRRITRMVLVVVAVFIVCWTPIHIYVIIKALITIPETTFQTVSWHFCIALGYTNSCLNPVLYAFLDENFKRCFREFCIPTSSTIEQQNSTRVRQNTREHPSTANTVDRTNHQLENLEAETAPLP
Outline: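 Displacement of [3H]naloxone was measured on rat whole brain minus cerebellum membranes, preincubated 20 min and incubated 20 min at 37° C, with filtration separating bound ligand. Ki was derived from IC50 and ligand KD. Percent displacement was also recorded at 10 nM and 100 nM test compound.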

[2] = 20 min, read-out: % displacement at 10 nM, 10 nM test compound, [3H] naloxone 0.5 nM
[3] = 20 min, read-out: % displacement at 100 nM, 100 nM test compound, [3H] naloxone 0.5 nM
[4] = 20 min, read-out: % displacement at 100 nM

Row | Structure (SMILES) | Ratio (AD50 mouse writhing test / ED50 mouse diarrhea test) [1] | ED50 [1] [mg/kg] | AD50 (opioid receptor) | Ki (mu receptor) [nM] | inhibition at 0.01 µM (mu receptor; [2]) [%] | inhibition at 0.1 µM (mu receptor; [3]) [%] | inhibition at 0.1 µM (mu receptor; [4]) [%] | inhibition at 0.01 µM (mu receptor; 20 min, read-out: % displacement at 10 nM) [%] | Ki (mu receptor; [3H] naloxone 0.5 nM, pH 7.4, 37° C., 20 min, read-out: Ki) [nM] | inhibition at 0.01 µM (mu receptor; 20 min, 10 nM test compound, [3H] naloxone 0.5 nM, read-out: % displacement at 10 nM) [%] | inhibition at 0.1 µM (mu receptor; 20 min, 100 nM test compound, [3H] naloxone 0.5 nM, read-out: % displacement at 100 nM) [%]
1 | CCOC(=O)CCNC(=O)C(CC1CCCCC1)CN1CC[C@@](C)(c2cccc(O)c2)[C@@H](C)C1 (some centres unmarked) [Example 36, 3-[[2-(cyclohexylmethyl)-3-[4-(3-hydroxyphenyl)-3,4-dimethyl-1-piperidinyl]-1-oxo-propyl]amino]propanoic acid ethyl ester monohydrochloride] | 12 | 0.32 | 3.8 | 0.47 | 79 | 86 |  |  |  |  | 
2 | CCNC(=O)CCNC(=O)C(CC1CCCCC1)CN1CC[C@@](C)(c2cccc(O)c2)[C@@H](C)C1 (some centres unmarked) [Example 37, monohydrochloride] | 43 | 0.09 | 3.9 | 1.09 | 93 |  | 97 |  |  |  | 
3 | C[C@H]1CN(CC(CC2CCCCC2)C(=O)NCCC(N)=O)CC[C@@]1(C)c1cccc(O)c1 (some centres unmarked) [Example 38, 3-[[1-oxo-2-cyclohexylmethyl)-3-[4-(3-hydroxyphenyl)-3,4-dimethyl-1-piperidinyl]propyl]-amino]propanamide hydrochloride] | > 667 | 0.06 | > 40 | 0.48 | 98 | 99 |  |  |  |  | 
4 | CCOC(=O)CCCNC(=O)C(CC1CCCCC1)CN1CC[C@@](C)(c2cccc(O)c2)[C@@H](C)C1 (some centres unmarked) [Example 39, 4-[[3-[3,4-dimethyl-4-(3-hydroxyphenyl)-1-piperidinyl]-2-(cyclohexhymethyl)-1-oxopropyl]-amino]butanoic acid ethyl ester monohydrochloride] | 18 | 0.66 | 11.9 | 3.75 | 91 |  | 98 |  |  |  | 
5 | C[C@H]1CN(CC(CC2CCCCC2)C(=O)NCCCC(N)=O)CC[C@@]1(C)c1cccc(O)c1 (some centres unmarked) [Example 40, 4-[[1-oxo-2-(cyclohexylmethyl)-3-[4-(3-hydroxyphenyl)-3,4-dimethyl-1-piperidinyl]propyl]-amino]butanamide hydrochloride] | 3.5 | 1.3 | 4.5 | 0.75 | 95 | 100 |  |  |  |  | 
6 | CNC(=O)CCCNC(=O)C(CC1CCCCC1)CN1CC[C@@](C)(c2cccc(O)c2)[C@@H](C)C1 (some centres unmarked) [Example 41, N-[4-(methylamino)-4-oxobutyl]-3-[4-(3-hydroxyphenyl)-3,4-dimethyl-1-piperidinyl]-2-cyclohexylmethylpropanamide monohydrochloride] | 26 | 0.17 | 4.5 | 0.39 | 100 | 100 |  |  |  |  | 
7 | CCNC(=O)CCCNC(=O)C(CC1CCCCC1)CN1CC[C@@](C)(c2cccc(O)c2)[C@@H](C)C1 (some centres unmarked) [Example 42, N-[4-(ethylamino)-4-oxobutyl]-3-[4-(3--hydroxyphenyl)-3,4-dimethyl-1-piperidinyl[-2-cyclohexyl-methylpropanamide monohydrate hydrochloride] | 8 | 0.26 | 2.1 | 0.57 | 100 |  | 97 |  |  |  | 
8 | CCOC(=O)CNC(=O)C(Cc1ccccc1)CN1CC[C@@](C)(c2cccc(O)c2)[C@@H](C)C1 (some centres unmarked) [Example 43, 2-[3-[4-(3-hydroxyphenyl)-3,4-dimethyl-1-piperidinyl]-1-oxo-2-(phenylmethyl)propyl]-amino]acetic acid ethyl ester hydrochloride] | 146 | 0.013 | 1.9 | 0.64 | 98 | 99 |  |  |  |  | 
9 | C[C@H]1CN(CC(Cc2ccccc2)C(=O)NCC(=O)O)CC[C@@]1(C)c1cccc(O)c1 (some centres unmarked) [Example 44, 2-[[3-[4-(3-hydroxyphenyl)-3,4-dimethyl-1-piperidinyl]-1-oxo-2-(phenylmethyl)propyl]-amino]acetic acid monohydrate] | > 266 | 0.15 | > 40 |  |  |  | 94 | 87 | 0.89 |  | 
10 | CCNC(=O)CNC(=O)C(Cc1ccccc1)CN1CC[C@@](C)(c2cccc(O)c2)[C@@H](C)C1 (some centres unmarked) [Example 45, N-ethyl-2-[[2-(phenylmethyl-)-1-oxo-3-[4-(3-hydroxyphenyl)-3,4-dimethyl-1-piperidinyl]propyl]-amino]ethanamide] | 11 | 0.24 | 2.6 | 1.28 | 93 |  | 98 |  |  |  | 
11 | C[C@H]1CN(CC(Cc2ccccc2)C(=O)NCC(N)=O)CC[C@@]1(C)c1cccc(O)c1 (some centres unmarked) [Example 46, N-(2-amino-2-oxoethyl)-3-[3,4-dimethyl-4-(3-hydroxyphenyl)-1-piperidinyl]-2-phenylmethyl propanamide monohydrochloride monohydrate] | 571 | 0.07 | 40 | 0.31 | 99 | 95 |  |  |  |  | 
12 | C[C@H]1CN(CC(Cc2ccccc2)C(=O)NCC(=O)N(C)C)CC[C@@]1(C)c1cccc(O)c1 (some centres unmarked) [Example 47, N,N-dimethyl-2-[[3-4-(3-hydroxyphenyl)-3,4-dimethyl-1-piperidinyl]-2-(phenylmethyl)-1-oxypropyl]amino]acetamide monohydrochloride monohydrate] | 267 | 0.15 | 40 | 2.11 | 89 | 95 |  |  |  |  | 
13 | CC(C)NC(=O)CNC(=O)C(Cc1ccccc1)CN1CC[C@@](C)(c2cccc(O)c2)[C@@H](C)C1 (some centres unmarked) [Example 48, N-(1-methylethyl)-2-[[3-[4-(3-hydroxyphenyl)-3,4-dimethyl-1-piperidinyl]-2-(phenylmethyl)-1-oxopropyl]amino]acetamide hydrochloride monohydrate] | > 400 | 0.1 | > 40 | 1.82 | 96 | 100 |  |  |  |  | 
14 | CCCNC(=O)CNC(=O)C(Cc1ccccc1)CN1CC[C@@](C)(c2cccc(O)c2)[C@@H](C)C1 (some centres unmarked) [Example 49, N-2-propylamino-2-oxoethyl]-3-[4-(3-hydroxyphenyl)-3,4-dimethyl-1-piperidinyl]-2-phenylmethyl propanamide monohydrate hydrochloride] | 61 | 0.1 | 6.08 | 0.54 | 98 | 100 |  |  |  |  | 
15 | CC(C)CNC(=O)CNC(=O)C(Cc1ccccc1)CN1CC[C@@](C)(c2cccc(O)c2)[C@@H](C)C1 (some centres unmarked) [Example 50, N-2-[(2-methylpropyl)amino]-2-oxo-ethyl]-3-[3,4-dimethyl-4-(3-hydroxyphenyl)-1-piperidinyl-2-phenylmethyl propanamide monohydrate hydrochloride] | 26 | 0.54 | 14.3 | 1.2 | 94 | 100 |  |  |  |  | 
16 | CC(C)OC(=O)CNC(=O)C(Cc1ccccc1)CN1CC[C@@](C)(c2cccc(O)c2)[C@@H](C)C1 (some centres unmarked) [Example 51, 2-[[2-(phenylmethyl)-3-[4-(3-hydroxyphenyl)-3,4-dimethyl-1-piperidinyl]-1-oxopropyl]-amino]ethanoic acid 2-propyl ester monohydrochloride] | 25 | 0.15 | 3.8 | 5.43 | 85 | 97 |  |  |  |  | 
17 | C[C@H]1CN(CC(Cc2ccccc2)C(=O)NCC(=O)OCC2CCCCC2)CC[C@@]1(C)c1cccc(O)c1 (some centres unmarked) [Example 53, 2-[[2-(phenylmethyl)-1-oxo-3-[4-(3-hydroxyphenyl)-3,%-dimethyl-1-piperidinyl]propylamino]-ethanoic acid cyclohexylmethyl estermonohydrochloride] | > 23 | 1.7 | > 40 |  |  |  |  |  |  | 2 | 11
